Data published in publication PMC7413254 (Nature Communications, 2020).
Like-named read-outs stand apart in the source and are kept apart here.

Tests used:
PfCRT^Dd2 [1] = target: T1, PfCRT^Dd2 (Plasmodium falciparum, UniProt Q9N623, A220S/I356T/K76T/M74I/N326S/N75E/Q271E/R371I); experiment: [3H]CQ uptake into Xenopus oocytes, cis-inhibition by unlabelled solute; assay type: cell-based
Summary of the method: (§1)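 Washed oocytes (ten per treatment) were exposed to label in pH 5.5 ND96 for 1.5 h at 27.5 °C. Buffer was then removed, cells rinsed in ice-cold ND96, lysed in SDS and counted.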

PfCRT^Ecu1110 [2] = target: T2, PfCRT^Ecu1110 (Plasmodium falciparum, UniProt Q9N623, A220S/I356L/K76T/N326D); experiment: as above; assay type: cell-based
T2 sequence (Q9N623 whole entry A220S/I356L/K76T/N326D): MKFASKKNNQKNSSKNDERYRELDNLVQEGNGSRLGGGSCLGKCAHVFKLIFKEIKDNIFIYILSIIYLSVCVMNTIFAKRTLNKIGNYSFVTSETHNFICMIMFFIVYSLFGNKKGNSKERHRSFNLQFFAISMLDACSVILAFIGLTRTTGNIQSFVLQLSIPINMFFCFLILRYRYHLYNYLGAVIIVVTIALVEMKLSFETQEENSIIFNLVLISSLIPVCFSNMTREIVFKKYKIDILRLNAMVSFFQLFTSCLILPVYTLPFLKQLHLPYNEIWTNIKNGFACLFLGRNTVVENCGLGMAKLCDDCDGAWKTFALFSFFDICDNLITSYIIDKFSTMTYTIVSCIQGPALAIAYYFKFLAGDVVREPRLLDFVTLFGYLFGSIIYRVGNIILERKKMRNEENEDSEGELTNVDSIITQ
Summary of the method: as §1

PfCRT [3] = experiment: Influx of VF-6 via PfCRT into the oocyte, solutes tested as potential co-substrates; assay type: cell-based, Plasmodium falciparum; design: key: X: Compounds that have been tested as potential co-substrates but are not required for influx of VF-6 via PfCRT into the oocyte; details: X marks the solute
non-expressing oocytes [4] = experiment: cells; assay type: cell-based, Xenopus laevis; details: Xenopus laevis, total [3H]CQ transport; for inhibition at 500 µM: [test solute] = 0.5 mM; for inhibition at 1000 µM: [test solute] = 1 mM; for inhibition at 2000 µM: [test solute] = 2 mM
Summary of the method: as §1

PfCRT^3D7 [5] = target: T3, PfCRT^3D7 (Plasmodium falciparum, UniProt Q8IBZ9); experiment: cell-based; assay type: cell-based; details: total [3H]CQ transport; for inhibition at 500 µM: [test solute] = 0.5 mM; for inhibition at 1000 µM: [test solute] = 1 mM; for inhibition at 2000 µM: [test solute] = 2 mM
T3 sequence (Q8IBZ9 59-398): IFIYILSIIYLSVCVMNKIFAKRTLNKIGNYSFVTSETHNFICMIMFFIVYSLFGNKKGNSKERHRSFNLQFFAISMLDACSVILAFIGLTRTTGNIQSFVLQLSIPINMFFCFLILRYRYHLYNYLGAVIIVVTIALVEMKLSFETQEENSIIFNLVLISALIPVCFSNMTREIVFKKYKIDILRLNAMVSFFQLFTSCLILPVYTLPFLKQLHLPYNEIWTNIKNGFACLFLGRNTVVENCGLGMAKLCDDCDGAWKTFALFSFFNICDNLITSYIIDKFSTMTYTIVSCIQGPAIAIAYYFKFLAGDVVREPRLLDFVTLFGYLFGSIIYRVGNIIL
Summary of the method: as §1

PfCRT^Dd2 [6] = target: T1, PfCRT^Dd2; experiment: cell-based; assay type: cell-based; details: […]
Summary of the method: (§2)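 Transport measured in Xenopus oocytes expressing the transporters, 1.5 h at 27.5 °C in ND96 pH 5.5 unless noted. For trans-stimulation, VF-6 injected in 25 nL ND96 at pH 5.0–7.0 or Na^+-free (choline) buffer; intracellular levels based on ~400 nL oocyte volume. Ten oocytes per treatment, ≥4 experiments.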

PfCRT^Ecu1110 [7] = target: T2, PfCRT^Ecu1110; experiment: cell-based; assay type: cell-based; details: […]
Summary of the method: as §2

PfCRT^3D7 [8] = target: T3, PfCRT^3D7; experiment: cell-based; assay type: cell-based
Summary of the method: as §2

PfNT1 = target: T4, PfNT1 (Plasmodium falciparum, UniProt Q8IDM6); experiment: cell-based; assay type: cell-based; details: for activity at 5000 µM: total [3H]CQ transport
T4 construct: expressed in transfected cells; host or cells: Xenopus laevis oocytes (stage V-VI), cRNA-injected
T4 sequence (Q8IDM6 whole entry): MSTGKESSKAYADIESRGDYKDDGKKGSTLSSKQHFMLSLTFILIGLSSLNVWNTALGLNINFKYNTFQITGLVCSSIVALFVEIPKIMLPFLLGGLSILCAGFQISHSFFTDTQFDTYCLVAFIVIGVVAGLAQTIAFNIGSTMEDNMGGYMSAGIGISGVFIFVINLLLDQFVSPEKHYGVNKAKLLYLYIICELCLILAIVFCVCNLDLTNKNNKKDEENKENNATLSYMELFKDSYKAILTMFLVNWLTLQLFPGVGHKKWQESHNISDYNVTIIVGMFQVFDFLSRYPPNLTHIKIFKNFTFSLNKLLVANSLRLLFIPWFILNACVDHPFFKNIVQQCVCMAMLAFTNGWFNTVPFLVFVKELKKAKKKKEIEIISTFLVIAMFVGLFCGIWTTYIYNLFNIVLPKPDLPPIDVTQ
Summary of the method: as §2

PfCRT [9] = experiment: Test of solutes as potential co-substrates for influx of VF-6 via PfCRT into the oocyte; assay type: cell-based, Plasmodium falciparum; design: key: X: Compounds that have been tested as potential co-substrates but are not required for influx of VF-6 via PfCRT into the oocyte; details: X = tested
non-expressing oocytes [10] = assay type: cell-based, Xenopus laevis; details: total [3H]CQ transport; for Uptake of [3H]CQ (% non-expressing oocyte control), trans-stimulation: non-expressing oocytes, normalised to the oocyte type control; for Uptake of [3H]CQ (% PfCRTDd2 control), trans-stimulation, non-expressing oocytes: mean ± SEM, SEM
Summary of the method: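 Oocytes (ten per treatment, ≥4 independent frogs/days) were preloaded by injecting VF-6 in 25 nL ND96 at pH 5.0, 5.5, 6.0 or 7.0, or Na^+-free choline buffer, then uptake run 1.5 h, 27.5 °C, ND96 pH 5.5 by default. Internal concentrations assumed ~400 nL oocyte volume.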

[11] = read-out: PfCRT-mediated [3H]CQ transport, cis-inhibition (% PfCRTDd2 control)
[12] = read-out: Uptake of [3H]CQ (% PfCRTDd2 control), cis-inhibition, PfCRTDd2, SEM
[13] = read-out: PfCRT-mediated [3H]CQ transport, cis-inhibition (% PfCRTEcu1110 control)
[14] = read-out: Uptake of [3H]CQ (% PfCRTDd2 control), cis-inhibition, PfCRTEcu1110, SEM
[15] = read-out: Uptake of [3H]CQ (% PfCRTEcu1110 control), cis-inhibition
[16] = read-out: [3H]CQ transport (% PfCRTEcu1110 control), cis-inhibition, PfCRTEcu1110, SEM
[17] = Oocyte, mean ± SEM, SEM, read-out: Uptake of [3H]CQ (% PfCRTDd2 control), cis-inhibition, non-expressing oocytes
[18] = non-expressing oocytes, normalised to the oocyte type control, read-out: Uptake of [3H]CQ (% non-expressing oocyte control), cis-inhibition
[19] = PfCRT3D7 oocytes, normalised to the oocyte type control, read-out: Uptake of [3H]CQ (% PfCRT3D7 control), cis-inhibition
[20] = mean ± SEM, SEM, read-out: Uptake of [3H]CQ (% PfCRTDd2 control), cis-inhibition, PfCRT3D7

T1 sequence (Q9N623 whole entry A220S/I356T/K76T/M74I/N326S/N75E/Q271E/R371I): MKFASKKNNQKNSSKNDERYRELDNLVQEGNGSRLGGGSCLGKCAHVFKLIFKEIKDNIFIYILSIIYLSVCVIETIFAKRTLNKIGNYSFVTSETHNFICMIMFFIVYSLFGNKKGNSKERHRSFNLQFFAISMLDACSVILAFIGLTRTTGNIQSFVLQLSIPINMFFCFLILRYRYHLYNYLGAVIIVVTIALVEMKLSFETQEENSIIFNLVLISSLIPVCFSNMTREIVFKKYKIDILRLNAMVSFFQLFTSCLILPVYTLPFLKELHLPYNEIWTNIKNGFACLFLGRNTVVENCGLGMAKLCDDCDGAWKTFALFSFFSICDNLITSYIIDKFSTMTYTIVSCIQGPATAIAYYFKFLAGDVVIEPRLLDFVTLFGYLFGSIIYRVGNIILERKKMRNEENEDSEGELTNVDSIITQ

N[C@@H](Cc1c[nH]cn1)C(=O)O [L-histidine]
inhibition at 500 µM (PfCRT^Dd2 [1]; [11]): 96 ± 3.6% | inhibition at 1000 µM (PfCRT^Dd2 [1]; [11]): 97 ± 4.1% | inhibition at 500 µM (PfCRT^Dd2 [1]; [12]): 98 ± 9.7% | inhibition at 1000 µM (PfCRT^Dd2 [1]; [12]): 99 ± 4.2% | inhibition at 2000 µM (PfCRT^Dd2 [1]; [12]): 100 ± 2.2% | inhibition at 500 µM (PfCRT^Ecu1110 [2]; [13]): 95 ± 1.5% | inhibition at 1000 µM (PfCRT^Ecu1110 [2]; [13]): 94 ± 3.2% | inhibition at 2000 µM (PfCRT^Ecu1110 [2]; [13]): 98 ± 2.6% | inhibition at 500 µM (PfCRT^Ecu1110 [2]; [14]): 32 ± 1.4% | inhibition at 1000 µM (PfCRT^Ecu1110 [2]; [14]): 31 ± 2.1% | inhibition at 2000 µM (PfCRT^Ecu1110 [2]; [14]): 33 ± 1% | inhibition at 500 µM (PfCRT^Ecu1110 [2]; [15]): 97 ± 5.6% | inhibition at 1000 µM (PfCRT^Ecu1110 [2]; [15]): 96 ± 4.6% | inhibition at 2000 µM (PfCRT^Ecu1110 [2]; [15]): 100 ± 8.2% | inhibition at 500 µM (PfCRT^Ecu1110 [2]; [16]): 29 ± 0.4% | inhibition at 1000 µM (PfCRT^Ecu1110 [2]; [16]): 28 ± 0.2% | inhibition at 2000 µM (PfCRT^Ecu1110 [2]; [16]): 30 ± 1.3% | Compounds that have been tested as potential co-substrates but are not required for influx of VF-6 via PfCRT into the oocyte (PfCRT [3]): X | inhibition at 500 µM (non-expressing oocytes [4]; [17]): 2.4 ± 0.06% | inhibition at 1000 µM (non-expressing oocytes [4]; [17]): 2.8 ± 0.07% | inhibition at 2000 µM (non-expressing oocytes [4]; [17]): 2.6 ± 0.05% | inhibition at 500 µM (non-expressing oocytes [4]; [18]): 96 ± 4.3% | inhibition at 1000 µM (non-expressing oocytes [4]; [18]): 99 ± 3.7% | inhibition at 2000 µM (non-expressing oocytes [4]; [18]): 99 ± 4.7% | inhibition at 500 µM (PfCRT^3D7 [5]; [19]): 99 ± 5.2% | inhibition at 1000 µM (PfCRT^3D7 [5]; [19]): 99 ± 3.6% | inhibition at 2000 µM (PfCRT^3D7 [5]; [19]): 101 ± 4.7% | inhibition at 500 µM (PfCRT^3D7 [5]; [20]): 3.7 ± 0.02% | inhibition at 1000 µM (PfCRT^3D7 [5]; [20]): 2.8 ± 0.02% | inhibition at 2000 µM (PfCRT^3D7 [5]; [20]): 2.8 ± 0.03% | activity at 5000 µM (PfCRT^Dd2 [6]; pH 5.5, read-out: Uptake of [3H]CQ (% PfCRTDd2 control), trans-stimulation, PfCRTDd2, total [3H]CQ transport, [test solute]i = 5 mM (intracellular), mean ± SEM, SEM): 101 ± 2.2% | activity at 5000 µM (PfCRT^Dd2 [6]; pH 5.5, read-out: Uptake of [3H]CQ (% PfCRTDd2 control), trans-stimulation, PfCRTDd2 oocytes, [test solute]i = 5 mM, total [3H]CQ transport, normalised to the oocyte type control): 101 ± 2.2% | activity at 45000 µM (PfCRT^Dd2 [6]; pH 5.5, read-out: Uptake of [3H]CQ (% PfCRTDd2 control), trans-stimulation, PfCRTDd2 oocytes, [test solute]i = 45 mM (30 mM for some solutes due to solubility), total [3H]CQ transport, normalised to the oocyte type control): 97 ± 3.2% | activity at 5000 µM (PfCRT^Ecu1110 [7]; pH 5.5, read-out: Uptake of [3H]CQ (% PfCRTEcu1110 control), trans-stimulation, PfCRTEcu1110 oocytes, [test solute]i = 5 mM, total [3H]CQ transport, normalised to the oocyte type control): 100 ± 3.6% | activity at 45000 µM (PfCRT^Ecu1110 [7]; pH 5.5, read-out: Uptake of [3H]CQ (% PfCRTEcu1110 control), trans-stimulation, PfCRTEcu1110 oocytes, [test solute]i = 45 mM (30 mM for some solutes due to solubility), total [3H]CQ transport, normalised to the oocyte type control): 99 ± 3% | activity at 5000 µM (PfCRT^Ecu1110 [7]; read-out: Uptake of [3H]CQ (% PfCRTDd2 control), trans-stimulation, PfCRTEcu1110, total [3H]CQ transport, [test solute]i = 5 mM (intracellular), mean ± SEM, SEM): 36 ± 1.3% | activity at 45000 µM (PfCRT^Ecu1110 [7]; read-out: Uptake of [3H]CQ (% PfCRTDd2 control), trans-stimulation, PfCRTEcu1110, total [3H]CQ transport, [test solute]i = 45 mM (intracellular; 30 mM for some solutes due to solubility), mean ± SEM, SEM): 35 ± 2.5% | activity at 5000 µM (PfCRT^3D7 [8]; PfCRT3D7 oocytes, [test solute]i = 5 mM, total [3H]CQ transport, normalised to the oocyte type control, read-out: Uptake of [3H]CQ (% PfCRT3D7 control), trans-stimulation): 97 ± 3.6% | [3H]CQ transport (% PfCRT3D7 control), trans-stimulation, PfCRT3D7 (PfCRT^3D7 [8]; SEM): 0.2 ± 0.01 % PfCRT3D7 control | activity at 5000 µM (PfCRT^3D7 [8]; [test solute]i = 5 mM (intracellular), PfCRT3D7 oocytes, normalised to oocyte type control, read-out: PfCRT-mediated [3H]CQ transport, trans-stimulation (% PfCRT3D7 control)): 95 ± 2.9% | activity at 45000 µM (PfCRT^3D7 [8]; SEM, read-out: Uptake of [3H]CQ (% PfCRTDd2 control), trans-stimulation, PfCRT3D7): 3.3 ± 0.02% | activity at 45000 µM (PfCRT^3D7 [8]; read-out: PfCRT-mediated [3H]CQ transport, trans-stimulation (% PfCRT3D7 control)): 97 ± 2.2% | activity at 45000 µM (PfCRT^3D7 [8]; read-out: Uptake of [3H]CQ (% PfCRT3D7 control), trans-stimulation): 99 ± 3.7% | activity at 5000 µM (PfCRT^3D7 [8]; total [3H]CQ transport, [test solute]i = 5 mM (intracellular), mean ± SEM, SEM, read-out: Uptake of [3H]CQ (% PfCRTDd2 control), trans-stimulation, PfCRT3D7): 3.2 ± 0.09% | activity at 5000 µM (PfNT1; PfNT1 oocytes, [test solute]i = 5 mM, normalised to the oocyte type control, read-out: Uptake of [3H]CQ (% PfNT1 control), trans-stimulation): 99 ± 3.3% | activity at 45000 µM (PfNT1; SEM, read-out: Uptake of [3H]CQ (% PfCRTDd2 control), trans-stimulation, PfNT1): 2.6 ± 0.04% | activity at 45000 µM (PfNT1; read-out: Uptake of [3H]CQ (% PfNT1 control), trans-stimulation): 99 ± 4.2% | activity at 5000 µM (PfNT1; [test solute]i = 5 mM (intracellular), mean ± SEM, SEM, read-out: Uptake of [3H]CQ (% PfCRTDd2 control), trans-stimulation, PfNT1): 2.2 ± 0.09% | Tested as potential co-substrate but not required for influx of VF-6 via PfCRT into the oocyte (PfCRT [9]): X | Uptake of [3H]CQ (% non-expressing oocyte control), trans-stimulation (non-expressing oocytes [10]; [test solute]i = 5 mM): 99 ± 3.6 % non-expressing oocyte control | Uptake of [3H]CQ (% non-expressing oocyte control), trans-stimulation (non-expressing oocytes [10]; [test solute]i = 45 mM (30 mM for some solutes due to solubility)): 100 ± 4.8 % non-expressing oocyte control | Uptake of [3H]CQ (% PfCRTDd2 control), trans-stimulation, non-expressing oocytes (non-expressing oocytes [10]; [test solute]i = 5 mM (intracellular)): 3.0 ± 0.06 % PfCRTDd2 control | Uptake of [3H]CQ (% PfCRTDd2 control), trans-stimulation, non-expressing oocytes (non-expressing oocytes [10]; [test solute]i = 45 mM (intracellular; 30 mM for some solutes due to solubility)): 2.5 ± 0.01 % PfCRTDd2 control
